The text below walks through data of patent US5654320A, “Indazolecarboxamides” (Eli Lilly and Company, priority 1995, dated 1997).

Broadly, the Kb is the equilibrium dissociation constant of an antagonist, usually derived from a functional assay.

Where a name gives a salt, the structure may show the parent alone. Read-outs that look alike come from different tables or passages of the source.

The target in assay [1] is T1, 5-HT4 receptor (Rattus norvegicus, UniProt Q62758).
T1 construct: esophagus smooth muscle, freshly removed from male Wistar rats; from tissue; host or cells: esophagus smooth muscle of male Wistar rats
T1 sequence (Q62758 whole entry): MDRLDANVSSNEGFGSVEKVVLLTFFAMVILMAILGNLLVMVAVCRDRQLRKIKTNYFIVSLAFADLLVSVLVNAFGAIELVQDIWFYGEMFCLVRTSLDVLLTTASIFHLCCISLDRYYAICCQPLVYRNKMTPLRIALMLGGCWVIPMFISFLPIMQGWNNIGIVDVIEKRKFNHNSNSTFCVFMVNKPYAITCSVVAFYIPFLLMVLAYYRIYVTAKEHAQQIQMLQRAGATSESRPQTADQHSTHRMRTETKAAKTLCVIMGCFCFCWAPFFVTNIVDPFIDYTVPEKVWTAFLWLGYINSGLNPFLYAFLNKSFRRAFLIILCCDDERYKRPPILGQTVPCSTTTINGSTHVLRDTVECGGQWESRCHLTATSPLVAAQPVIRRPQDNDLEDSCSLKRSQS
Description: 5-HT4 receptor antagonism in carbamylcholine-contracted isolated esophagus smooth muscle (antagonism of serotonin-induced relaxation). Also noted: species or system male Wistar rats. The protocol: The test was carried out in esophagus smooth muscle, freshly removed from male Wistar rats weighing 250-300 g each. The rats were killed by cervical dislocation, and the esophagus was removed and dissected free of connective tissue. The esophagi were used as longitudinal preparations--obtaining two preparations from each animal. The tissues were tied with thread at each end with the lower end being tied to a stationary glass rod and the upper end to a force transducer.
Tissues were mounted in organ baths containing 10 mL of modified Krebs' solution of the following composition (millimolar) NaCl 118.2; KCl 4.6; CaCl2.2H2 O 1.6; KH2 PO4 1.2; MgSO4 1.2; dextrose 10.0; and NaHCO3 24.8. Tissue bath solutions were maintained at 37° C. and aerated with 95% O2 -5% CO2. Tissues were placed under optimum resting force, 1 g, and were allowed to equilibrate for 1 hr before exposure to drugs. Isometric contractions were recorded as changes in grams of force on the Modular Instruments Inc. (Malvern, Pa.) model M4000 data acquisition system with Sensotec (Columbus, Ohio) model MBL 5514-02 transducers.
For studies with partial agonists or antagonists, tissues were preincubated with vehicle or antagonist for 45 min. All drugs were prepared daily in deionized water and kept on ice during the course of the experiment. The tissues were contracted by incubation with 10^-7 -10^-5 M carbamylcholine, and were relaxed by the addition of serotonin at 10^-8 -10^-10 M, which treatment relaxed the tissue and reduced the contraction caused by carbamylcholine. Addition of a compound of the present invention antagonized the serotonin response and reduced the observed relaxations of the tissue. Repeated tests of each compound at various concentrations were carried out, and the concentration that caused a two-fold shift of the relaxation curve was calculated. That concentration is reported here as the negative logarithm. In each case, the SEM of the data has been calculated and is shown below, as is the number of experiments carried out with each compound.

Assay [2] has as its system 5-HT4 receptor. The following applies: presently known compound; cited from earlier work.

For the molecule `O=C(NCCN1CCCCC1)c1n[nH]c2ccccc12` [Example 1, N-[2-(1-piperidinyl)ethyl]-1H-indazole-3-carboxamide hydrochloride], the Kb at 5-HT4 receptor [1] (negative logarithm of concentration that caused a two-fold shift of the serotonin relaxation curve, rat esophagus, 45 min preincubation, ± SEM (number of experiments), read-out: -Log KB (converted)) was 31.6 nM. The molecule `CC(C)n1nc(C(=O)NCCN2CCCCC2)c2ccccc21` [Example 2, N-[2-(1-piperidinyl)ethyl]-1-(2-propyl)-1H-indazole-3-carboxamide hydrochloride] gave a Kb on 5-HT4 receptor [1] of 10 nM. As for `CC(C)n1nc(C(=O)NCCCN2CCCCC2)c2ccccc21` [Example 4, N-[3-(1-piperidinyl)propyl]-1-(2-propyl)-1H-indazole-3-carboxamide hydrochloride], the Kb on 5-HT4 receptor [1] is 7.94 nM. The same measure, in the same setting: under `CC(C)n1nc(C(=O)NCCCCN2CCCCC2)c2ccccc21` [Example 6, N-[4-(1-piperidinyl)butyl]-1-(2-propyl)-1H-indazole-3-carboxamide oxalate] stands 6.31 nM; under `CC(C)n1nc(C(=O)NCCN2CCC(NC(=O)OCc3ccccc3)CC2)c2ccccc21` [Example 8, N-[2-(4-benzyloxycarbonylamino-1-piperidinyl)ethyl]-1-(2-propyl)-1H-indazole-3-carboxamide oxalate], 1.58 nM.

In the case of `CC(C)n1nc(C(=O)NCCN2CCCC2)c2ccccc21` [Example 10, N-[2-(1-pyrrolidinyl)ethyl]-1-(2-propyl)-1H-indazole-3-carboxamide hydrochloride], the Kb on 5-HT4 receptor [1] was 20 nM.

Regarding `CC(C)n1nc(C(=O)NCCN2CCCCCC2)c2ccccc21` [Example 12, N-[2-(1-hexamethyleneiminyl)ethyl]-1-(2-propyl)-1H-indazole-3-carboxamide hydrochloride], the Kb at 5-HT4 receptor [1] is 10 nM. On the same count and under the same terms, to `CC(C)n1nc(C(=O)NCCN2CCOCC2)c2ccccc21` [Example 14, N-[2-(4-morpholinyl)ethyl]-1-(2-propyl)-1H-indazole-3-carboxamide hydrochloride] belongs 25.1 nM; to `CC(C)n1nc(C(=O)NCCN2CCN(Cc3ccccc3)CC2)c2ccccc21` [Example 16, N-[2-(4-benzyl-1-piperazinyl)ethyl]-1-(2-propyl)-1H-indazole-3-carboxamidedihydrochloride], 10 nM. The molecule `CC(C)n1nc(C(=O)NCCN2CCN(C(=O)c3ccccc3)CC2)c2ccccc21` [Example 18, N-[2-(4-benzoyl-1-piperazinyl)ethyl]-1-(2-propyl)-1H-indazole-3-carboxamide oxalate] had a Kb on 5-HT4 receptor [1] of 31.6 nM.

In the case of `CC(C)n1nc(C(=O)NCCN2CCC(Cc3ccccc3)CC2)c2ccccc21` [Example 20, N-[2-(4-benzyl-1-piperidinyl)ethyl]-1-(2-propyl)-1H-indazole-3-carboxamideoxalate], the Kb at 5-HT4 receptor [1] is 50.1 nM. The same measure, in the same setting: to `CC(C)n1nc(C(=O)NCCN2CCc3ccccc3C2)c2ccccc21` [Example 22, N-[2-(1,2,3,4-tetrahydro-2-isoquinolinyl)ethyl]-1-(2-propyl)-1H-indazole-3-carboxamide oxalate] belongs 10 nM; to `CC(C)n1nc(C(=O)NCCN2CCC(N)CC2)c2ccccc21` [Example 23, N-[2-(4-amino-1-piperidinyl)ethyl]-1-(2-propyl)-1H-indazole-3-carboxamide dioxalate], 158 nM; to `CC(C)n1nc(C(=O)NCCN2CCC(NS(C)(=O)=O)CC2)c2ccccc21` [Example 24, N-[2-(4-methylsulfonylamino-1-piperidinyl)ethyl]-1-(2-propyl)-1H-indazole-3-carboxamide oxalate], 12.6 nM. On the same count and under the same terms, to `CC(C)n1nc(C(=O)NCCN2CCC(NC(=O)c3ccccc3)CC2)c2ccccc21` [Example 25, N-[2-(4-benzoylamino-1-piperidinyl)ethyl]-1-(2-propyl)-1H-indazole-3-carboxamide oxalate] belongs 2.51 nM. The same measure, in the same setting: under `CC(C)n1nc(C(=O)NCCN2CCC(NC(=O)Cc3ccccc3)CC2)c2ccccc21` [Example 26, N-[2-(4-benzylcarbonylamino-1-piperidinyl)ethyl]-1-(2-propyl)-1H-indazole-3-carboxamide oxalate] stands 3.98 nM; under `CC(C)n1nc(C(=O)NCCN2CCC(NC(=O)C34CC5CC(CC(C5)C3)C4)CC2)c2ccccc21` [Example 27, N-[2-(4-(1-adamantylcarbonylamino)-1-piperidinyl)ethyl]-1-(2-propyl)-1H-indazole-3-carboxamide oxalate], 0.126 nM; under `CC(=O)NC1CCN(CCNC(=O)c2nn(C(C)C)c3ccccc23)CC1` [Example 28, N-[2-(4-acetylamino-1-piperidinyl)ethyl]-1-(2-propyl)-1H-indazole-3-carboxamide oxalate], 5.01 nM.

`CCC(=O)NC1CCN(CCNC(=O)c2nn(C(C)C)c3ccccc23)CC1` [Example 29, N-[2-(4-propionylamino-1-piperidinyl)ethyl]-1-(2-propyl)-1H-indazole-3-carboxamide oxalate] gave a Kb on 5-HT4 receptor [1] of 3.16 nM.

In the case of `CCCC(=O)NC1CCN(CCNC(=O)c2nn(C(C)C)c3ccccc23)CC1` [Example 30, N-[2-(4-butyrylamino-1-piperidinyl)ethyl]-1-(2-propyl)-1H-indazole-3-carboxamide oxalate], the Kb at 5-HT4 receptor [1] was 15.8 nM. Same read-out and setting: under `CCCCC(=O)NC1CCN(CCNC(=O)c2nn(C(C)C)c3ccccc23)CC1` [Example 31, N-[2-(4-valerylamino-1-piperidinyl)ethyl]-1-(2-propyl)-1H-indazole-3-carboxamide] stands 20 nM. `CC(C)C(=O)NC1CCN(CCNC(=O)c2nn(C(C)C)c3ccccc23)CC1` [Example 32, N-[2-(4-isobutyrylamino-1-piperidinyl)ethyl]-1-(2-propyl)-1H-indazole-3-carboxamide oxalate] gave a Kb on 5-HT4 receptor [1] of 2.51 nM. On the same count and under the same terms, under `CC(C)n1nc(C(=O)NCCN2CCC(NC(=O)C(C)(C)C)CC2)c2ccccc21` [Example 33, N-[2-(4-trimethylacetylamino-1-piperidinyl)ethyl]-1-(2-propyl)-1H-indazole-3-carboxamide oxalate] stands 3.16 nM; under `CC(C)n1nc(C(=O)NCCN2CCC(NC(=O)NCc3ccccc3)CC2)c2ccccc21` [Example 34, N-[2-(4-benzylaminocarbonylamino)-1-piperidinyl)ethyl]-1-(2-propyl)-1H-indazole-3-carboxamide oxalate], 5.01 nM; under `CC(C)n1nc(C(=O)NCCN2CCC(NC(=O)Nc3ccccc3)CC2)c2ccccc21` [Example 35, N-[2-(4-phenylaminocarbonylamino)-1-piperidinyl)ethyl]-1-(2-propyl)-1H-indazole-3-carboxamide oxalate], 10 nM. `CC(C)n1nc(C(=O)NCCN2CCC(NC(=O)Nc3ccc(F)cc3)CC2)c2ccccc21` [Example 36, N-[2-(4-(4-fluorophenylaminocarbonylamino)-1-piperidinyl)ethyl]-1-(2-propyl)-1H-indazole-3-carboxamide oxalate] gave a Kb on 5-HT4 receptor [1] of 25.1 nM. Still for that read-out and setting: under `CC(C)n1nc(C(=O)NCCN2CCC(NC(=O)C34CC5CC(CC(O)(C5)C3)C4)CC2)c2ccccc21` [Example 37, N-[2-(4-(3-hydroxy-1-adamantylcarbonylamino)-1-piperidinyl)ethyl]-1-(2-propyl)-1H-indazole-3-carboxamide oxalate] stands 1.26 nM; under `CC(C)n1nc(C(=O)NCCN2CCC(NC(=O)C34CC5CC(C3)C(O)C(C5)C4)CC2)c2ccccc21` (centres unmarked) [Example 38, N-[2-(4-(4-hydroxy-1-adamantylcarbonylamino)-1-piperidinyl)ethyl]-1-(2-propyl)-1H-indazole-3-carboxamide oxalate], 2 nM. Consider `COc1cc(N)c(Cl)cc1C(=O)NC1CCN(CCCOc2ccc(F)cc2)CC1OC` (centres unmarked) [cisapride], for which the “affinity at the 5-HT4 receptor” value in the assay on 5-HT4 receptor [2] is listed as “high affinity”.
